A word on the inhibition: it is the share of the control response that was lost under treatment. The IC50 is the midpoint of a concentration-inhibition curve.

SMILES strings stand for the structures. Where two headings read alike, the source gives them in different places. Bounds are passed on as bounds.

Consider eleven molecules from patent US10093630B2, “Pyrazole compounds and methods of making and using same” (ABIDE THERAPEUTICS, INC., priority 2014, dated 2018).

What all share (experiment): In vitro competitive activity-based protein profiling (gel-based, FP-Rh or HT-01 probe)
Holding throughout (format): biochemical

Test [1] deals with T1, ABHD6 (Mus musculus, UniProt Q8R2Y0).
T1 construct: Proteomes (mouse brain membrane fraction or cell lysates); from tissue; host or cells: mouse brain membrane fraction (or cell lysates, not specified)
T1 sequence (Q8R2Y0 1-336): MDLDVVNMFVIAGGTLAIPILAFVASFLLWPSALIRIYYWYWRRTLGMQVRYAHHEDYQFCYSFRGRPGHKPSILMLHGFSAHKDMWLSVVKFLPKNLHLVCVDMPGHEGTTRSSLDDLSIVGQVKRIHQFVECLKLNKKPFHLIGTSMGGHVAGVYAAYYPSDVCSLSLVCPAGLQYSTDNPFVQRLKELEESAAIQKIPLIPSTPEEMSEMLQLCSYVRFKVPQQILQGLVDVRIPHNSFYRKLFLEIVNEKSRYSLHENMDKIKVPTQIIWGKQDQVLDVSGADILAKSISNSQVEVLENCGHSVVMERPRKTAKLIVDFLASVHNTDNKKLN
Particulars: for inhibition at 1 µM: 1 μM inhibitor, read-out: % Inhibition at 1 μM, C = ABHD6; for inhibition at 10 µM: 10 μM inhibitor, read-out: % Inhibition at 10 μM, C = ABHD6; for IC50: mouse brain membrane fraction or cell lysates, 30 min preincubation at 37° C., read-out: Mouse (IC50 value, nM) ABHD6. The procedure, abridged: (§1)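 Mouse brain membrane proteome or cell lysate (1.0 mg/mL protein) was preincubated with inhibitor at varying concentrations for 30 min at 37° C, then labelled with FP-Rh or HT-01 for 30 min at 37° C. After SDS-PAGE, residual hydrolase activity was quantified as in-gel fluorescence of each band.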

Test [2] deals with T2, FAAH (Mus musculus, UniProt O08914).
T2 construct: Proteomes (mouse brain membrane fraction or cell lysates); from tissue; host or cells: mouse brain membrane fraction (or cell lysates, not specified)
T2 sequence (O08914 1-579): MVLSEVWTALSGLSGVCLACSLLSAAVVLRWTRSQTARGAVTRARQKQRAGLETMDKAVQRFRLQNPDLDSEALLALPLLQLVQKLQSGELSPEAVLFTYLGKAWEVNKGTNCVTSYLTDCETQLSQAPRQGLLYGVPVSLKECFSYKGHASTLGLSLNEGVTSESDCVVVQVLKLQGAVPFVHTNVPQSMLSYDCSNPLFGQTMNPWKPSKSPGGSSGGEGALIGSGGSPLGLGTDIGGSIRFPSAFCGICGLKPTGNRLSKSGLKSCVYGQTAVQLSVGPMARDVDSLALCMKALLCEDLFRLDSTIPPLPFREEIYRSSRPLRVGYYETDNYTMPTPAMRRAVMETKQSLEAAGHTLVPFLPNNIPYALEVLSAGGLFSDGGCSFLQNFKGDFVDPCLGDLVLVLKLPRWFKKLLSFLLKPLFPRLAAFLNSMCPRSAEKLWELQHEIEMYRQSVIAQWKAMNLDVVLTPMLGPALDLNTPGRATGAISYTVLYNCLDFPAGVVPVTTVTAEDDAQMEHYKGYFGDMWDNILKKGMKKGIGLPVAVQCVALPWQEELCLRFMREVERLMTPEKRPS
Particulars: for inhibition at 10 µM: 10 μM inhibitor, read-out: % Inhibition at 10 μM, B = FAAH; for inhibition at 1 µM: 1 μM inhibitor, read-out: % Inhibition at 1 μM, B = FAAH; for IC50: mouse brain membrane fraction or cell lysates, 30 min preincubation at 37° C., read-out: Mouse (IC50 value, nM) FAAH. In short, it runs like this: as §1

In test [3] the target is T3, PLA2G7 (Mus musculus, UniProt Q60963).
T3 construct: Proteomes (mouse brain membrane fraction or cell lysates); from tissue; host or cells: mouse brain membrane fraction (or cell lysates, not specified)
T3 sequence (Q60963 22-440): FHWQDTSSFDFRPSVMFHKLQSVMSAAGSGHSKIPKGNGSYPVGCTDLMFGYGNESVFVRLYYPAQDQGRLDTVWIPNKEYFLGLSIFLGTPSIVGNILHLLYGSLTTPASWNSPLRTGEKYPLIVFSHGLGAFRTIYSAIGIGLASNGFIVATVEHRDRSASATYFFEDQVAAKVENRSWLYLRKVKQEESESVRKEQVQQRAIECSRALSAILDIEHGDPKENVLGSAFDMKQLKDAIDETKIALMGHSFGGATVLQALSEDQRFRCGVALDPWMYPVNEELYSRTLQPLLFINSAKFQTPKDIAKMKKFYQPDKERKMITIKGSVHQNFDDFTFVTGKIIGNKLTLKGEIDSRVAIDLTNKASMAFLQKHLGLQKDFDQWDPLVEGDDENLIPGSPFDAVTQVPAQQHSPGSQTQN
Conditions: for inhibition at 1 µM: 1 μM inhibitor, read-out: % Inhibition at 1 μM, D = PLA2G7; for inhibition at 10 µM: 10 μM inhibitor, read-out: % Inhibition at 10 μM, D = PLA2G7; for IC50: mouse brain membrane fraction or cell lysates, 30 min preincubation at 37° C. The procedure, abridged:
as §1

Test [4] concerns the target T4, MAGL (Mus musculus, UniProt O35678).
T4 construct: Proteomes (mouse brain membrane fraction or cell lysates); from tissue; host or cells: mouse brain membrane fraction (or cell lysates, not specified)
T4 sequence (O35678 1-303): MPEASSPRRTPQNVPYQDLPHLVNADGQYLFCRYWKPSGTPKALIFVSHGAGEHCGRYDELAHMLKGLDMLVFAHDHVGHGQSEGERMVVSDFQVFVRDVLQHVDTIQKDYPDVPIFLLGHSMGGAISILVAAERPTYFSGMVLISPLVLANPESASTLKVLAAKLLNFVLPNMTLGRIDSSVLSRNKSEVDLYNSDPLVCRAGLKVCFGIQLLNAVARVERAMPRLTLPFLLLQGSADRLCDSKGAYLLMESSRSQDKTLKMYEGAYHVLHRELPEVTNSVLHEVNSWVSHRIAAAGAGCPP
Conditions: for inhibition at 10 µM: 10 μM inhibitor; for inhibition at 1 µM: 1 μM inhibitor; for IC50: mouse brain membrane fraction or cell lysates, 30 min preincubation at 37° C., read-out: Mouse (IC50 value, nM) MAGL. The procedure, abridged:
as §1

As for `Cc1ccccc1-c1cnn(C(=O)N2CCN(C(c3ccc(Cl)cc3)c3ccc(Cl)cc3)CC2)c1` [Example 122, (4-(Bis(4-chlorophenyl)methyl)piperazin-1-yl)(4-(o-tolyl)-1H-pyrazol-1-yl)methanone], the inhibition at 1 µM in test [1] was < 25%; in test [3], 25 to 75%. For the same molecule, the inhibition at 10 µM in test [1] was > 75%; in test [2] it was < 25%; in test [3], > 75%; in test [4] it was 25 to 75%.

With `CCN(Cc1ccccc1C)C(=O)n1cc(Cl)cn1` [Example 132, 4-Chloro-N-(2-methylbenzyl)-N-ethyl-1H-pyrazole-1-carboxamide], the inhibition at 1 µM in test [1], in test [2], in test [3] and in test [4] was < 25% each time.

Regarding `CCN(Cc1cccc(C)c1)C(=O)n1cc(C#N)cn1` [Example 246, 4-Cyano-N-ethyl-N-(3-methylbenzyl)-1H-pyrazole-1-carboxamide], the inhibition at 1 µM in test [1] (gel-based competitive ABPP) is > 75%; in test [2] (gel-based competitive ABPP), > 75%; in test [3] (gel-based competitive ABPP), < 25%; in test [4] (gel-based competitive ABPP), > 75%. Further, the IC50 in test [1] was 100 to 1000 nM; in test [2], < 100 nM; in test [3] it was > 1000 nM; in test [4], 100 to 1000 nM.

On to `CCN(Cc1ccc(OC)cc1)C(=O)n1cc(C(F)(F)F)cn1` [Example 259, N-Ethyl-N-(4-methoxybenzyl)-4-(trifluoromethyl)-1H-pyrazole-1-carboxamide], for which the inhibition at 1 µM in test [1] (gel-based competitive ABPP) was < 25%; in test [2] (gel-based competitive ABPP) it was > 75%; in test [3] (gel-based competitive ABPP), < 25%; in test [4] (gel-based competitive ABPP) it was > 75%. Also, the IC50 was > 1000 nM in test [1], < 100 nM in test [2], > 1000 nM in test [3] and > 1000 nM in test [4].

For the molecule `O=C(c1cnn(C(=O)N2CCN(Cc3nccs3)CC2)c1)N1CCCCC1` [Example 74, Piperidin-1-yl(1-(4-(thiazol-2-ylmethyl)piperazine-1-carbonyl)-1H-pyrazol-4-yl)methanone], the inhibition at 1 µM in test [1] is > 75%; in test [2], < 25%; in test [3], > 75%; in test [4], < 25%. Besides, the inhibition at 10 µM was > 75% in test [1], > 75% in test [2], > 75% in test [3] and < 25% in test [4].

`Cc1cnn(C(=O)N2CCCN(C)CC2)c1` [Example 167, (4-Methyl-1,4-diazepan-1-yl)(4-methyl-1H-pyrazol-1-yl)methanone]: the inhibition at 10 µM in test [1], in test [2], in test [3] and in test [4] was < 25% each time.

Turning to `N#Cc1cnn(C(=O)N2CCCN(Cc3ccc(Oc4ccccc4)cc3)CC2)c1` [Example 301, 1-(4-(4-Phenoxybenzyl)-1,4-diazepane-1-carbonyl)-1H-pyrazole-4-carbonitrile], the inhibition at 1 µM in test [1] (gel-based competitive ABPP) was > 75%; in test [2] (gel-based competitive ABPP), > 75%; in test [3] (gel-based competitive ABPP), < 25%; in test [4] (gel-based competitive ABPP), > 75%.

`COc1cc(-c2ccccc2)ccc1CN1CCN(C(=O)n2cc(Cl)cn2)CC1` [Example 141, (4-Chloro-1H-pyrazol-1-yl)(4-((3-methoxybiphenyl-4-yl)methyl)piperazin-1-yl)methanone]: the inhibition at 1 µM in test [1] was > 75%; in test [2], > 75%; in test [3], < 25%; in test [4] it was > 75%. Further, the inhibition at 10 µM in test [1], in test [2], in test [3] and in test [4] was > 75% each time. Besides, the IC50 in test [1] is 100 to 1000 nM; in test [2] it was 100 to 1000 nM; in test [4], < 100 nM.

In the case of `O=C(N1CCN(Cc2ccc(N3CCCC3)cc2)CC1)n1cc(Cl)cn1` [Example 212, (4-Chloro-1H-pyrazol-1-yl)(4-(4-(pyrrolidin-1-yl)benzyl)piperazin-1-yl)methanone], the inhibition at 1 µM in test [1] was > 75%; in test [2] it was > 75%; in test [3], < 25%; in test [4] it was > 75%. Further, the inhibition at 10 µM in test [1], in test [2], in test [3] and in test [4] was > 75% each time. Moreover, the figures for the IC50 in test [1], in test [2] and in test [4] were 100 to 1000 nM, 100 to 1000 nM and < 100 nM, respectively.

Consider `O=C(N1CCN(Cc2ccc3ccccc3c2)CC1)n1cc(Br)cn1` [Example 13, (4-Bromo-1H-pyrazol-1-yl)(4-(naphthalen-2-ylmethyl)piperazin-1-yl)methanone], for which the inhibition at 1 µM in test [1], in test [2], in test [3] and in test [4] was > 75% each time. In addition, the inhibition at 10 µM in test [1], in test [2], in test [3] and in test [4] was > 75% throughout.

As for `O=C(c1cnn(C(=O)N2CCN(Cc3ccc(-c4ccccc4)cc3OCc3ccccc3)CC2)c1)N1CCCC1` [Example 291, (4-((3-(Benzyloxy)biphenyl-4-yl)methyl)piperazin-1-yl)(4-(pyrrolidine-1-carbonyl)-1H-pyrazol-1-yl)methanone], the inhibition at 1 µM was > 75% in test [1] (gel-based competitive ABPP), > 75% in test [2] (gel-based competitive ABPP), < 25% in test [3] (gel-based competitive ABPP) and > 75% in test [4] (gel-based competitive ABPP). Besides, the inhibition at 10 µM in test [1] (gel-based competitive ABPP) is > 75%; in test [2] (gel-based competitive ABPP), > 75%; in test [3] (gel-based competitive ABPP), 25 to 75%; in test [4] (gel-based competitive ABPP), > 75%.
